Among the data in patent US6573259B2, “Inhibitors of interleukin-1β converting enzyme” (Vertex Pharmaceuticals Incorporated, priority 1996, dated 2003) are IC50 values, retold here.

Molecules are shown by their SMILES. pIC50: −log10 of the molar value.

The term pIC50 denotes the IC50 on a negative log10 scale, so that one unit is a factor of ten. Low readings indicate a large IC50, high ones a small IC50.

The subject of experiment [1] is Human Peripheral Blood Mononuclear Cells (PBMC). Nature of the experiment: PBMC cell assay (IL-1β assay with human PBMC, LPS stimulated, ELISA). The class given is cell-based. Particulars: LPS 5 ng/ml, 16-18 hr. The text has this:
IL-L1β Assay with a Mixed Population of Human Peripheral Blood Mononuclear Cells (PBMC) or Enriched Adherent Mononuclear Cells
Processing of pre-IL-1β by ICE can be measured in cell culture using a variety of cell sources. Human PBMC obtained from healthy donors provides a mixed population of lymphocyte subtypes and mononuclear cells that produce a spectrum of interleukins and cytokines in response to many classes of physiological stimulators. Adherent mononuclear cells from PBMC provides an enriched source of normal monocytes for selective studies of cytokine production by activated cells.
An initial dilution series of test compound in DMSO or ethanol is prepared, with a subsequent dilution into RPMI-10% FBS media (containing 2 mM L-glutamine, 10 mM HEPES, 50 U and 50 ug/ml pen/strep) respectively to yield drugs at 4× the final test concentration containing 0.4% DMSO or 0.4% ethanol. The final concentration of DMSO is 0.1% for all drug dilutions. A concentration titration which brackets the apparent Ki for a test compound determined in an ICE inhibition assay is generally used for the primary compound screen.
Generally 5-6 compound dilutions are tested and the cellular component of the assay is performed in duplicate, with duplicate ELISA determinations on each cell culture supernatant.
Buffy coat cells isolated from one pint human blood (yielding 40-45 ml final volume plasma plus cells) are diluted with media to 80 ml and LeukoPREP separation tubes (Becton Dickinson) are each overlaid with 10 ml of cell suspension. After 15 min centrifugation at 1500-1800 xg, the plasma/media layer is aspirated and then the mononuclear cell layer is collected with a Pasteur pipette and transferred to a 15 ml conical centrifuge tube (Corning). […] The PBMC pellet is resuspended in a small volume of media, the cells are counted and adjusted to 6×10^6 cells/ml. […]
The skilled practitioner realizes that values obtained in cell assays, such as those described herein, can depend on multiple factors. The values may not necessarily represent fine quantitative results.

For the next experiment, the system named is Human whole blood. Put plainly: Whole blood assay for IL-1β production. The class given is cell-based. To be noted: 16-18 hr. As for the experimental part:
Whole Blood Assay for IL-1β Production
The whole blood assay is a simple method for measuring the production of IL-1β (or other cytokines) and the activity of potential inhibitors. The complexity of this assay system, with its full complement of lymphoid and inflammatory cell types, spectrum of plasma proteins and red blood cells is an ideal in vitro representation of human in vivo physiologic conditions.
Set incubator or water bath at 30° C. Aliquot 0.25 ml of blood into 1.5 ml eppendorf tubes, making sure to invert the whole blood sample tubes after every two aliquots. Differences in replicates may result if the cells sediment and are not uniformly suspended. Use of a positive displacement pipette will also minimize differences between replicate aliquots.
Prepare drug dilutions in sterile pyrogen-free saline by serial dilution. A dilution series which brackets the apparent Ki for a test compound determined in an ICE inhibition assay is generally used for the primary compound screen. For extremely hydrophobic compounds, prepare compound dilutions in fresh plasma obtained from the same blood donor or in PBS-containing 5% DMSO to enhance solubility.
Add 25 μl test compound dilution or vehicle control and gently mix the sample. Then add 5.0 μl LPS solution (250 ng/ml stocked prepared fresh: 5.0 ng/ml final concentration LPS), and mix again. Incubate the tubes at […] in a water bath for 16-18 hr with occasional mixing. Alternatively, the tubes can be placed in a rotator set at 4 rpm for the same incubation period. This assay should be set up in duplicate or triplicate with the following controls: negative control—no LPS; positive control—no test inhibitor; vehicle control—the highest concentration of DMSO or compound solvent used in the experiment. Additional saline is added to all control tubes to normalize volumes for both control and experimental whole blood test samples.
After the incubation period, whole blood samples are centrifuged for 10 minutes at ˜2000 rpm in the microfuge, plasma is transferred to a fresh microfuge tube and centrifuged at 1000×g to pellet residual platelets if necessary. Plasma samples may be stored frozen at −70° C. prior to assay for cytokine levels by ELISA.
R & D Systems (614 McKinley Place N.E. Minneapolis, Minn. 55413) Quantikine kits may be used for measurement of IL-1β and TNF-α. The assays are performed according to the manufacturer's directions. IL-1β levels of ˜1-5 ng/ml in positive controls among a range of individuals may be observed. A 1:200 dilution of plasma for all samples is usually sufficient for experiments for ELISA results to fall on the linear range of the ELISA standard curves. It may be necessary to optimize standard dilutions if you observe differences in the whole blood assay. Nerad, J. L. et al., J. Leukocyte Biol., 52, pp. 687-692 (1992).

The mark [2] stands for this setting: Table 4, mature IL-1β in supernatant.

In experiment [1] (Table 2, mature IL-1β in supernatant), `O=C[C@H](CC(=O)O)NC(=O)CN1C(=O)C(NC(=O)OCc2ccccc2)N=C(c2ccccc2)c2ccccc21` (stereo partly drawn) [Example 1, (3S)-3-[3(R,S)-1,3-Dihydro-2-oxo-5-phenyl((benzyloxycarbonyl)amino)-2H-1,4-benzodiazepin-1-acetylamino]-4-oxobutyric acid] had a pIC50 of 4.70.

For `Nc1c(Cl)cc(C(=O)NC2N=C(c3ccccc3)c3ccccc3N(CC(=O)N[C@H](C=O)CC(=O)O)C2=O)cc1Cl` (some centres unmarked) [Example 7], the pIC50 in the experiment with Human whole blood (Table 2, LPS 5.0 ng/ml) is less than 4.70.

In the case of `O=C[C@H](CC(=O)O)NC(=O)CN1C(=O)C(NC(=O)c2nccc3ccccc23)N=C(c2ccccc2)c2ccccc21` (some centres unmarked) [Example 11], in the experiment with Human whole blood (Table 4, LPS 5.0 ng/ml), the negative logarithm of the IC50 (pIC50) was 5.05.

With `Nc1ccc(C(=O)NC2N=C(c3ccccc3)c3ccccc3N(CC(=O)N[C@H](C=O)CC(=O)O)C2=O)cc1Cl` (some centres unmarked) [Example 18], the pIC50 in the experiment with Human whole blood (Table 2, LPS 5.0 ng/ml) was less than 4.70.

In turn, `Cc1cc(C(=O)NC2N=C(c3ccccc3)c3ccccc3N(CC(=O)N[C@H](C=O)CC(=O)O)C2=O)cc(C)c1O` (some centres unmarked) [Example 19] had a pIC50 with Human whole blood (Table 2, LPS 5.0 ng/ml) of 5.00.

Turning to `O=C[C@H](CC(=O)O)NC(=O)CN1C(=O)C(NC(=O)c2cc(Cl)c(O)c(Cl)c2)N=C(c2ccccc2)c2ccccc21` (some centres unmarked) [Example 21], the pIC50 in the experiment with Human whole blood (Table 2, LPS 5.0 ng/ml) is 5.00.

Turning to `COc1ccc(Cl)cc1S(=O)(=O)NC1N=C(c2ccccc2)c2ccccc2N(CC(=O)N[C@H](C=O)CC(=O)O)C1=O` (some centres unmarked) [Example 39], the pIC50 in the experiment on Human whole blood (Table 4, LPS 5.0 ng/ml) was less than 4.70.

Turning to `COc1cccc(OC)c1C(=O)C(=O)NC1N=C(c2ccccc2)c2ccccc2N(CC(=O)N[C@H](C=O)CC(=O)O)C1=O` (some centres unmarked) [Example 49], in experiment [1] (setting [2]), the pIC50 is less than 5.10.

The compound `O=C[C@H](CC(=O)O)NC(=O)CN1C(=O)C(NC(=O)c2ccc(O)c(Cl)c2)N=C(c2ccccc2)c2ccccc21` (some centres unmarked) [Example 50] gave a pIC50 in experiment [1] (setting [2]) of less than 5.10.

`Cc1cc(C(=O)NC2N=C(c3ccccc3)c3cc(NC=O)ccc3N(CC(=O)N[C@H](C=O)CC(=O)O)C2=O)cc(C)c1O` (some centres unmarked) [Example 58] gave a pIC50 in the experiment on Human whole blood (Table 4, LPS 5.0 ng/ml) of less than 4.70.

Regarding `Cc1cc(C(=O)NC2N=C(c3ccccc3)c3cc(N)ccc3N(CC(=O)N[C@H](C=O)CC(=O)O)C2=O)cc(C)c1O` (some centres unmarked) [Example 59], the pIC50 in the experiment with Human whole blood (Table 4, LPS 5.0 ng/ml) is 5.04.
